In brackets after ≈: the same amount, converted by molar mass. Several values for one entry are separate records, joined by “and”; a condition that tells them apart may be missing. Identical values can stand only once.
How the values were obtained:
S. aureus = experiment: Anti-bacterial efficacy (MIC), S. aureus; type: cell-based; details: for MIC Sa: Table 2; for MIC: Staphylococcus aureus, Table 3
E. coli = experiment: Anti-bacterial efficacy (MIC), E. coli; type: cell-based; details: for MIC Ec: Table 2; for MIC: Escherichia coli, Table 3
K. pneumoniae = experiment: Anti-bacterial efficacy (MIC), K. pneumoniae; type: cell-based; details: for MIC Kpn: Table 2; for MIC: Klebsiella pneumoniae, Table 3
A. baumannii = experiment: Anti-bacterial efficacy (MIC), A. baumannii; type: cell-based; details: for MIC Ab: Table 2; for MIC: Acinetobacter baumannii, Table 3
P. aeruginosa = experiment: Anti-bacterial efficacy (MIC), P. aeruginosa; type: cell-based; details: for MIC Pa: Table 2; for MIC: Pseudomonas aeruginosa, Table 3
hERG = molecular target: T1, hERG (Homo sapiens, UniProt Q12809); experiment: hERG inhibition, Cerep automated patch-clamp assay in Chinese Hamster Ovary K1 cells; type: cell-based; details: CHO K1 cells, tail current, read-out: hREG IC50
T1 construct: host or cells: Chinese Hamster Ovary K1 cells
T1 sequence (Q12809 whole entry): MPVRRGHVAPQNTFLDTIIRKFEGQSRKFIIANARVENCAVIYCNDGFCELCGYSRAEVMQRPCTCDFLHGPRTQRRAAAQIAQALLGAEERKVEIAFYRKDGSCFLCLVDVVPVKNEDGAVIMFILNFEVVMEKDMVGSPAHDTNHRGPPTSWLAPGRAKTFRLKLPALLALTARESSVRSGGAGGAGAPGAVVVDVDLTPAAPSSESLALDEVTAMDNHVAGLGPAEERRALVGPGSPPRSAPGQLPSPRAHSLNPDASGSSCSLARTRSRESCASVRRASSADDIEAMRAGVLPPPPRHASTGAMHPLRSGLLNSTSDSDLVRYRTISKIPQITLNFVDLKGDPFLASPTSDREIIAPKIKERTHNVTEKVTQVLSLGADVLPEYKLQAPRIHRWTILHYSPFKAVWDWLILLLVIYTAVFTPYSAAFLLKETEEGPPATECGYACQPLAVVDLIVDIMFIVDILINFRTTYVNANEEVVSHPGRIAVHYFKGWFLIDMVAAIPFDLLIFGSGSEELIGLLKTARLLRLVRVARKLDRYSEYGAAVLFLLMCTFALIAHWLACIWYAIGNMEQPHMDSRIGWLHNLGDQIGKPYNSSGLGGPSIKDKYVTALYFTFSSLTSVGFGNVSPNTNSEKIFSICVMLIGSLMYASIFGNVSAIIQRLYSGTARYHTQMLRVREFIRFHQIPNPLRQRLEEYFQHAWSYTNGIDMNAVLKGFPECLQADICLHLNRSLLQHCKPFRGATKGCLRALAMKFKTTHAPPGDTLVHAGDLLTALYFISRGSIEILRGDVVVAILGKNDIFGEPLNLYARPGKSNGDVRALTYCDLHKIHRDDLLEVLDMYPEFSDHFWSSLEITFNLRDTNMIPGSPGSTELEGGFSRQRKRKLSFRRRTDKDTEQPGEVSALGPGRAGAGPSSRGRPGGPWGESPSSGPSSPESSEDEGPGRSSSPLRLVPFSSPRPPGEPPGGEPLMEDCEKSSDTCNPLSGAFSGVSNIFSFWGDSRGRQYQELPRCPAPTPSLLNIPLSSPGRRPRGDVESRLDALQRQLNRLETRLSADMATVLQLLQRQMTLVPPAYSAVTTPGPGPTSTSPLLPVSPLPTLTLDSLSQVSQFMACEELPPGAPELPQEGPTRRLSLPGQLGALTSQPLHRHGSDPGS
Method: A Cerep automated patch-clamp assay using Chinese Hamster Ovary K1 cells was used to measure hERG IC50 values. The degree of inhibition (%) was obtained by measuring the tail current amplitude, which is induced by a one second test pulse to −40 mV after a two second pulse to +20 mV, before and after drug incubation (the difference in current was normalized to control and multiplied by 100 to obtain the percent inhibition).
Concentration (log) response curves were fitted to a logistic equation (three parameters assuming complete block of the current at very high test compound concentrations) to generate estimates of the 50% inhibitory convcentration (IC50). The concentration-response relationship of each compound was constructed from the percentage reductions of current amplitude by sequential concentrations. The MIC and hERG IC50 values are provided in Table 2 below for the compounds tested.

Caco-2 cell monolayer = Caco-2 cell monolayer permeability; type: in vitro ADME, human; details: Caco-2 monolayer permeability
Source text: Oral bioavailability can be assessed by various methods such as measuring the Caco-2 cell monolayer permeability, and measuring pharmacokinetic properties by calculating the ratio of the AUC from oral administration to the AUC from intravenous administration. Both methods are used to assess compounds here as illustrated in Examples 8-9. In some aspects, compounds herein show the highest membrane (Caco-2 cell monolayer) permeability among all the compounds tested. The Caco-2 cell line is a continuous cell of heterogeneous human epithelial colorectal adenocarcinoma cells that when cultured under specific conditions the cells become differentiated and polarized such that their phenotype, morphologically and functionally, resembles the enterocytes lining the small intestine. Thus, the Caco-2 monolayer is widely used across the pharmaceutical industry as an in vitro model of the human small intestinal mucosa to predict the absorption of orally-administered drugs.
Caco-2 human colon carcinoma cell line (Caco-2) was used as a model system for intestinal epithelial permeability. There is similarity in uptake and barrier properties between this cell system and the small intestinal epithelial layer. See., Hidalgo I J, et al., Gastroenterology. 1989 March; 96(3):736-49. Characterization of the human colon carcinoma cell line (Caco-2) as a model system for intestinal epithelial permeability.

[1] = In vivo mouse PK, oral bioavailability; details: plasma, AUC oral / AUC intravenous, read-out: Mouse % F
Method: Typical protocol is a single dose intravenous and oral (gavage) administration with blood collection from each animal by cardiac puncture at selected (6 to 8) time points (n=3 mice per time point) into a tube containing an appropriate anticoagulant. The blood is centrifuged and the resulting plasma removed for subsequent analysis. After proper sample preparation, the plasma concentrations of a test compound are determined by LC-MS/MS and the pharmacokinctics (namely, area-under-curve or AUC) of the concentration-time profile from oral administration is compared with the corresponding pharmacokinetics from intravenous administration. […] In addition, Caco values are shown.

Dog oral bioavailability = details: in vivo, read-out: Dog % F

SMILES	MIC Sa (S. aureus) [mg/L]	MIC Ec (E. coli) [mg/L]	MIC Kpn (K. pneumoniae) [mg/L]	MIC Ab (A. baumannii) [mg/L]	MIC Pa (P. aeruginosa) [mg/L]	IC50 (hERG) [µM]	MIC (S. aureus) [mg/L]	MIC (E. coli) [mg/L]	MIC (K. pneumoniae) [mg/L]	MIC (A. baumannii) [mg/L]	MIC (P. aeruginosa) [mg/L]	Caco (Caco-2 cell monolayer)	bioavailability [1] [%]	bioavailability (Dog oral bioavailability) [%]
CNc1cc(F)cc2c1[nH]c1nc(Oc3cnc(C)nc3)nc(N3CC4(CCC4N)C3)c12 (stereo not shown)	≤0.016	0.25 (≈ 0.575 µM)	2 (≈ 4.6 µM)	0.5 (≈ 1.15 µM)	1 (≈ 2.3 µM)	16	–	–	–	–	–	–	–	–
CNc1cc(F)c(F)c2c1[nH]c1nc(Oc3cnc([C@H](C)O)nc3)nc(N3C[C@H]4CC3C[C@H]4N)c12 [1.1]	–	–	–	–	–	–	≤ 0.016	0.25 (≈ 0.518 µM)	1 (≈ 2.07 µM)	4 (≈ 8.29 µM)	2 (≈ 4.15 µM)	<0.1 10^−8 cm/s	< 2	–
CNc1cc(F)cc2c1[nH]c1nc(Oc3cnc(C)nc3)nc(N3CC4CC(O)C4C3)c12 (stereo not shown)	≤0.016	0.13 (≈ 0.299 µM)	1 (≈ 2.3 µM)	0.5 (≈ 1.15 µM)	16 (≈ 36.7 µM)	20	–	–	–	–	–	–	–	–
CNc1cc(F)cc2c1[nH]c1nc(Oc3cnc(C)nc3)nc(N3C[C@@H]4[C@@H](O)[C@@H]4C3)c12 [1.4]	–	–	–	–	–	–	≤ 0.016	0.5 (≈ 1.19 µM)	1 (≈ 2.37 µM)	2 (≈ 4.75 µM)	> 16	7.5 10^−8 cm/s	15	–
CNc1cc(F)cc2c1[nH]c1nc(Oc3cnc(C)nc3)nc(N3C[C@H]4C[C@@H](O)[C@H]4C3)c12 [1.3]	–	–	–	–	–	–	≤ 0.016	0.13 (≈ 0.299 µM)	0.5 (≈ 1.15 µM)	1 (≈ 2.3 µM)	16 (≈ 36.7 µM)	5.5 10^−8 cm/s and 6.3 10^−8 cm/s	25	50
CNc1cc(F)cc2c1[nH]c1nc(Oc3cnc(C)nc3)nc(N3CC4CC3CC4N)c12 (stereo not shown)	≤0.016	0.13 (≈ 0.299 µM)	2 (≈ 4.6 µM)	0.5 (≈ 1.15 µM)	1 (≈ 2.3 µM)	4	–	–	–	–	–	–	–	–
CNc1cc(F)c(F)c2c1[nH]c1nc(Oc3cnc([C@H](C)O)nc3)nc(N3CC4(CCC4N)C3)c12 (stereo partly shown) [1.2]	–	–	–	–	–	–	≤ 0.016	0.13 (≈ 0.269 µM)	1 (≈ 2.07 µM)	2 (≈ 4.15 µM)	1 (≈ 2.07 µM)	–	< 2	–
CNc1cc(F)cc2c1[nH]c1nc(Oc3cnc(C)nc3)nc(N3CC4(CCC4O)C3)c12 (stereo not shown)	≤0.016	1 (≈ 2.3 µM)	4 (≈ 9.19 µM)	4 (≈ 9.19 µM)	>16	100	–	–	–	–	–	–	–	–
CNc1cc(F)cc2c1[nH]c1nc(Oc3cnc(C)nc3)nc(N3CC4CC(N)C4C3)c12 (stereo not shown)	≤0.016	0.25 (≈ 0.575 µM)	2 (≈ 4.6 µM)	0.25 (≈ 0.575 µM)	1 (≈ 2.3 µM)	1	–	–	–	–	–	–	–	–
CNc1cc(F)cc2c1[nH]c1nc(Oc3cnc(C)nc3)nc(N3CC4C(O)C4C3)c12 (stereo not shown)	≤0.016	0.25 (≈ 0.593 µM)	1 (≈ 2.37 µM)	0.5 (≈ 1.19 µM)	>16	41	–	–	–	–	–	–	–	–
CNc1cc(F)cc2c1[nH]c1nc(Oc3cnc(C)nc3)nc(N3CC4CC3CC4O)c12 (stereo not shown)	≤0.016	1 (≈ 2.3 µM)	8 (≈ 18.4 µM)	4 (≈ 9.19 µM)	>16	71	–	–	–	–	–	–	–	–
CNc1cc(F)cc2c1[nH]c1nc(Oc3cnc(C)nc3)nc(N3CC4C(N)C4C3)c12 (stereo not shown)	≤0.016	0.13 (≈ 0.309 µM)	2 (≈ 4.76 µM)	0.25 (≈ 0.595 µM)	4 (≈ 9.51 µM)	9.5	–	–	–	–	–	–	–	–

— patent US10385055B2, “Tricyclic gyrase inhibitors” (Merck Sharp & Dohme Corp., priority 2013, dated 2019)
